Columns and labels:
[1] = test system: AMPA receptors; experiment: Capillary electrophoresis-patch clamp detection, kainate pre-activated whole-cell biosensor; format: cell-based; settings: 100 μM KA in capillary; holding potential −70 mV; interneurons from rat olfactory bulb
Experimental: Separation of mixtures of glutamate receptor antagonists were performed using cell-based biosensor-compatible buffers. A cell-based biosensor-compatible buffer is a buffer which effectively keeps the cell-based biosensor in a functional and viable condition during the course of the experiment or the analysis procedure. slightly modified standard HEPES-saline buffer containing 140 mM NaCl, 5 mM KCl, 1 mM MgCl2, 1 mM CaCl2, 10 mM glucose and 10 mM HEPES (pH 7.4, NaOH) was used as extracellular and capillary buffer in examples 1 and 2 except in the separation of Mg^2+ where MgCl2 were omitted. As described in the examples, the preferred agonist were only—included in the capillary solution. […]
(§1) The patch clamp detection was performed in the whole-cell configuration as described by Hamill, et al. (see Hamill, O. P., et al, Pflug. Arch. 391:85, 1981). […] Patch pipettes were fabricated from thick-walled borosilicate glass (code no GC150-10, Clark Electromedical Instruments, Pangboume, Reading, UK). […]
(§2) The signals were recorded with a patch clamp amplifier (Model List L/M EPC-7, List-Electronic, Darmstadt, Germany), digitized (20 kHz, PCM 2 A/D VCR adapter, Medical Systems Corp., NY, USA), and stored on videotape. […]

[2] = test system: N-methyl-D-aspartate receptor; experiment: Capillary electrophoresis-patch clamp detection, NMDA/glycine pre-activated whole-cell biosensor; format: cell-based, rat
Experimental: Separation of mixtures of glutamate receptor antagonists were performed using cell-based biosensor-compatible buffers. A cell-based biosensor-compatible buffer is a buffer which effectively keeps the cell-based biosensor in a functional and viable condition during the course of the experiment or the analysis procedure. slightly modified standard HEPES-saline buffer containing 140 mM NaCl, 5 mM KCl, 1 mM MgCl2, 1 mM CaCl2, 10 mM glucose and 10 mM HEPES (pH 7.4, NaOH) was used as extracellular and capillary buffer in examples 1 and 2 except in the separation of Mg^2+ where MgCl2 were omitted. As described in the examples, the preferred agonist were only—included in the capillary solution.
The cells used were interneurons from rat olfactory bulb acutely isolated according to the procedures described by Jacobson et al. (see Jacobson, I., Neurosci. Res. Comm. 8:11, 1991, and Jacobson, I., et al., Neurosci. Res. Comm. 10:177, 1992).
Newborn or adult rats (10-200 g) were anaesthetized with halothane (ISC Chemicals Ltd., Avonmouth, England) and decapitated. The olfactory bulbs were dissected and sliced into four pieces and placed in an incubation chamber. The chamber contained proteases from Aspergillus oryzae (2.5 mg/ml) which were dissolved in pre-warmed (32° C.) HEPES-saline buffer (see above). After 25-30 min., the slices were washed with the same buffer solution for 20 min. The solutions were constantly perfused with 95% O2 and 5% CO2 during both the enzymatic treatment arid the washing. […]
as §1, §2

[3] = voltage ramp −80 to +40 mV, NMDA receptor response attenuated by separated Mg^2+

Row | SMILES | effect on KA-activated current responses [1] | effect on N-methyl-D-aspartate-activated current responses ([2]; Mg^2+ 2 mM injected, 200 μM NMDA and 20 μM glycine in capillary, holding potential −70 mV, interneurons from rat olfactory bulb) | current-to-voltage relationship: inward currents at membrane resting potentials [2, 3] | current-to-voltage relationship: outward currents at positive potentials [2, 3]
1 | O=C(O)c1nc2cc(Cl)c(Cl)cc2nc1O [DCQXC, 6,7-dichloro-3-hydroxy-2-quinoxaline-carboxylic acid] | transient attenuations of KA-activated current responses |  |  | 
2 | [Mg+2] [Mg^2+] |  | transient Gaussian-distributed attenuation of N-methyl-D-aspartate-activated current responses | blockade of inward currents at membrane resting potentials | unaltered outward currents at positive potentials
3 | N#Cc1cc2c(cc1[N+](=O)[O-])=NC(=O)C(=O)N=2 [CNQX, 6-cyano-7-nitroquinoxaline-2,3-dione] | transient attenuations of KA-activated current responses |  |  | 

Reference: patent US6455303B1, “Detection of biologically active molecules by use of pre-activated cell-based biosensors in liquid-based separation systems” (Cellectricon AB, priority 1997, dated 2002)
